{"source": "patent US20030148954A1", "about": "“Agents and methods for modulating activator protein-1-mediated cellular processes” (Wisconsin Alumni Research Foundation, priority 2001, published 2003)", "key": {"AP-1 [1]": {"tested_on": "AP-1", "test": "AP-1 luciferase reporter, transient transfection of K562 cells", "format": "cell-based, human", "settings": "K562, p1×AP1luc, no NIC-1", "from_the_text": "(§1) Plasmids—The pBabe-NIC-1 (pNIC-1) expression vector encoding constitutively active Notch-1 (NIC-1) was described previously (36,37,51). This vector was derived from the pBabe-puro retroviral vector and includes a cDNA sequence encoding amino acids 1759-2556 of human Notch-1 with a Myc tag fused to its carboxyl terminus. Human NIC-1 deletion mutants were generated by PCR using a full-length human Notch-1 expression vector as the template. The Notch-dependent reporter plasmid containing four CBF1 binding sites and an simian virus 40 promoter fused to luciferase (p4×CBF1luc) was described previously (52). The AP-1 reporter plasmid (p1×AP1luc) containing a collagenase promoter fragment (−73/+67) with a single AP-1 binding site in the luciferase reporter vector pGL2-basic (Promega) was described previously (53). The NF-κB reporter plasmid (p3×κBluc) containing three NF-κB binding sites and a minimal promoter fused to luciferase was a kind gift of Dr. Shigeki Miyamoto (University of Wisconsin Medical School). The pBabe-H-Ras(12V) expression vector encoding constitutively active H-Ras was a kind gift of Dr. Charming Der (University of North Carolina-Chapel Hill). This vector was derived from the pBabe-puro retroviral vector and includes a cDNA encoding H-Ras with a Gly to Val mutation at amino acid 12.\n(§2) Transient Transfections—K562 cells (5×10^5) were collected by centrifugation at 240×g for 8 min at 4° C. and resuspended in 4 ml of complete IMEM. Plasmid DNAs (1 μg of reporter and 2 μg of effector) were added to 150 μl of IMEM, incubated with Superfect (4 μl/1 μg DNA; Qiagen) for 10 min at room temperature and then added to cells.\n(§3) For each transfection, cells were incubated for 26 h after transfection and then treated with TPA (final concentration: 5 nM) or the vehicle (DMSO). After incubating for another 12 or 16 h, cells were harvested and assayed for luciferase activity. Luciferase activity was normalized by the protein content of the lysates, determined by Bradford assay using γ-globulin as a standard."}, "AP-1 [2]": {"tested_on": "AP-1", "test": "EMSA of AP-1 DNA binding activity in nuclear extracts", "parameters": "species or system human", "settings": "K562 cells treated with TPA", "description": "K562-Babe and K562-NIC-1 cells were harvested by centrifugation for 10 min at 150×g. Cells were washed once with ice-cold PBS and resuspended in 1.5 volumes of nuclei lysis buffer (10 mM Tris-HCl, pH 7.5, 10 mM NaCl, 3 mM MgCl2, and 0.2% Nonidet P-40) on ice for 3 min. Nuclei were collected by centrifugation for 5 min at 600×g. Nuclei were washed by gentle resuspension in 1.5 volumes of nuclei wash buffer (10 mM Tris-HCl, pH 7.5, 10 mM NaCl, and 3 mM MgCl2) and then collected by centrifugation for 4 min at 600×g. […] Nuclei were extracted for 45 min at 4° C. with constant mixing. The suspension was then centrifuged for 30 min at 150,000×g. Aliquots of the supernatant were frozen on dry ice and stored at -80° C. The protein concentration as measured by the Bradford assay, with y-globulin as a standard ranged from 4 to 10 mg/ml. DTT (5 mM), phenylmethanesulfonyl fluoride (0.5 mM), leupeptin (20 μg/ml), β-glycerophosphate (800 μM), sodium vanadate (1 mM), and sodium molybdate (50 μM) were included in all buffers. Electrophoretic Mobility Shift Assay-EMSA assays were done as described previously (54). AP-1 DNA binding activity was measured by EMSA with a double-stranded end-labeled oligonucleotide [NT] containing a high affinity AP-1 binding site. […] DNA binding activity was quantitated by PhosphorImager analysis with ImageQuant software (Molecular Dynamics)."}, "IL-8": {"tested_on": "IL-8", "test": "Northern blotting of IL-8 transcripts in K562-Babe and K562-NIC-1 cells", "format": "cell-based, human", "settings": "K562-Babe cells, 5 nM TPA 12 h", "description": "(§4) Stable Transfection—K562 cells were stably transfected by electroporation with a Bio-Rad Gene pulser electroporator. Cells (5×10^6) were washed with ice-cold PBS, resuspended in 0.5 ml of ice-cold PBS, mixed with 5 μg linearized plasmid DNA, and subjected to electroporation (960 microfarad; 220 V) in a 0.4 cm-wide electroporation cuvette (BTX). pBabe and pNIC-1 were linearized with NotI. Cells were then added to 20 ml of complete IMEM, grown for 48 h, and diluted in complete IMEM containing 1.5 μg/ml puromycin (pools of K562-Babe and K562-NIC-1 cells). Stably transfected cells were analyzed for erythroid differentiation as soon as the pools were generated by benzidine staining to reduce the probability of phenotypic changes that may result from prolonged growth.\n(§5) Northern Blotting—Total RNA from K562-Babe and K562-NIC-1 cells was extracted with Triazol (Life Technologies, Inc.). Ten μg of RNA per sample was electrophoresed on a 1% agarose, 6.6% formaldehyde gel and then transferred overnight to a Magnacharge nylon membrane (Osmonics). RNA was cross-linked to the membrane by UV irradiation. Membranes were prehybridized for 30 min at 60° C. in ExpressHyb hybridization solution (Clontech). […] Radioactivity was quantitated by PhosphorImager analysis with ImageQuant software (Molecular Dynamics)."}, "CMV enhancer": {"tested_on": "CMV enhancer", "test": "pCMVβgal β-galactosidase reporter, transient transfection of K562 cells", "format": "cell-based, human", "settings": "K562, TPA treatment", "description": "as §2\n(§6) For each transfection, cells were incubated for 26 h after transfection and then treated with TPA (final concentration: 5 nM) or the vehicle (DMSO). […] Luciferase activity was normalized by the protein content of the lysates, determined by Bradford assay using γ-globulin as a standard."}, "AP-1 [3]": {"tested_on": "AP-1", "test": "AP-1 luciferase reporter, transient transfection of HeLa cells", "format": "cell-based, human", "from_the_text": "as §1, with “The pBabe-H-Ras(12V) expression vector encoding constitutively active H-Ras was a kind gift of Dr. Charming Der (University of North Carolina-Chapel Hill). This vector was derived from the pBabe-puro retroviral vector and includes a cDNA encoding H-Ras with a Gly to Val mutation at amino acid 12.” left out\nas §6"}, "MMP1": {"tested_on": "MMP1", "test": "Northern blotting of MMP1 transcripts in K562-Babe and K562-NIC-1 cells", "format": "cell-based, human", "settings": "K562-Babe cells, 5 nM TPA 12 h", "description": "as §4, §5"}, "human Aγ globin promoter": {"tested_on": "human Aγ globin promoter", "test": "pGL3γLuc reporter, transient transfection of K562 cells", "format": "cell-based", "settings": "K562, TPA treatment", "description": "as §2, §3"}, "NF-κB": {"tested_on": "NF-κB", "test": "NF-κB luciferase reporter (p3×κBluc), transient transfection of K562 cells", "format": "cell-based, human", "from_the_text": "as §1, with “The pBabe-H-Ras(12V) expression vector encoding constitutively active H-Ras was a kind gift of Dr. Charming Der (University of North Carolina-Chapel Hill). This vector was derived from the pBabe-puro retroviral vector and includes a cDNA encoding H-Ras with a Gly to Val mutation at amino acid 12.” left out\nas §6"}}}
{"smiles": "CCCCCCCCCCCCCC(=O)O[C@@H]1[C@@H](C)[C@@]2(O)[C@@H](C=C(CO)C[C@]3(O)C(=O)C(C)=C[C@@H]23)[C@@H]2C(C)(C)[C@]12OC(C)=O", "note": "[TPA, reference compound]", "values": [{"measurement": "induction of AP-1 reporter activity by the activator", "setting": "AP-1 [1]", "result": "strongly induced"}, {"measurement": "induction of AP-1 DNA binding activity", "setting": "AP-1 [2]", "result": "strongly induced"}, {"measurement": "induction of IL-8 transcript levels", "setting": "IL-8", "result": "strongly induced"}, {"measurement": "increase of pCMVβgal activity", "setting": "CMV enhancer", "result": "strongly increased"}, {"measurement": "induction of AP-1 reporter activity by the activator", "setting": "AP-1 [3]", "result": "strongly induced"}, {"measurement": "induction of MMP1 transcript levels", "setting": "MMP1", "result": "strongly induced"}, {"measurement": "increase of pGL3γLuc activity", "setting": "human Aγ globin promoter", "result": "~3", "unit": "fold"}, {"measurement": "activation of NF-κB reporter gene by the activator", "setting": "NF-κB", "result": "strongly activated"}]}
